Test results published in the NIST ThermoML archive (doi:10.1021/je500918t).
± gives the expanded uncertainty stated by the source.

Assays:
[1] = Crystal; DTA
[2] = Molar enthalpy of transition or fusion; conditions: Crystal; DSC

| Compound | Normal melting temperature [1] [°C] | Molar enthalpy of transition or fusion [2] [kcal/mol] |
| --- | --- | --- |
| Nc1ccc(S(=O)(=O)Nc2cc(Cl)ccc2Cl)cc1 [4-amino-N-(2,5-dichlorophenyl)benzenesulfonamide] | 172.8 ± 0.5 | 9.87 ± 0.311 |
| Cc1ccc(Cl)cc1NS(=O)(=O)c1ccc(N)cc1 [4-amino-N-(5-chloro-2-methylphenyl)benzenesulfonamide] | 149.6 ± 0.5 | 8.8 ± 0.287 |
| Cc1ccc(NS(=O)(=O)c2ccc(N)cc2)c(Cl)c1 [4-amino-N-(2-chloro-4-methylphenyl)benzenesulfonamide] | 155.7 ± 0.5 | 7.58 ± 0.287 |
| Nc1ccc(S(=O)(=O)Nc2ccccc2Cl)c(Cl)c1 [4-amino-2-chloro-N-(2-chlorophenyl)benzenesulfonamide] | 232 ± 0.5 | 12.3 ± 0.335 |
| Cc1cc(N)ccc1S(=O)(=O)Nc1ccccc1Cl [4-amino-N-(2-chlorophenyl)-2-methylbenzenesulfonamide] | 206.4 ± 0.5 | 11.3 ± 0.335 |
| CCN(CC)S(=O)(=O)c1ccc(N)cc1 [4-amino-N,N-diethylbenzenesulfonamide] | 105.7 ± 0.5 | 4.64 ± 0.263 |
| CN(C)S(=O)(=O)c1ccc(N)cc1 [4-amino-N,N-dimethylbenzenesulfonamide] | 171.5 ± 0.5 | 7.1 ± 0.287 |
| Nc1ccc(S(=O)(=O)Nc2ccc(Cl)cc2)cc1 [4-amino-N-(4-chlorophenyl)benzenesulfonamide] | 194.8 ± 0.5 | 5.69 ± 0.263 |
| Cc1cc(Cl)ccc1NS(=O)(=O)c1ccc(N)cc1 [4-amino-N-(4-chloro-2-methylphenyl)benzenesulfonamide] | 149.6 ± 0.5 | 8.8 ± 0.287 |
| CCc1ccc(NS(=O)(=O)c2ccc(N)cc2)cc1 [4-amino-N-(4-ethylphenyl)benzenesulfonamide] | 163.1 ± 0.5 | 8.68 ± 0.287 |
| O=[N+]([O-])c1ccc(S(=O)(=O)Nc2nccs2)cc1 [4-nitro-N-2-thiazolylbenzenesulfonamide] | 256.6 ± 0.5 | 7.6 ± 0.287 |
| CNS(=O)(=O)c1ccc(N)cc1 [4-amino-N-methylbenzenesulfonamide] | 109.1 ± 0.5 | 4.09 ± 0.263 |
| Cc1cc(N)ccc1S(=O)(=O)Nc1ccccc1[N+](=O)[O-] [4-amino-2-methyl-N-(2-nitrophenyl)benzenesulfonamide] | 178.2 ± 0.5 | 9.56 ± 0.311 |
| Cc1ccc(NS(=O)(=O)c2ccc(N)cc2)cc1Cl [4-amino-N-(3-chloro-4-methylphenyl)benzenesulfonamide] | 204.5 ± 0.5 | 10.9 ± 0.311 |
| Nc1ccc(S(=O)(=O)Nc2ccc([N+](=O)[O-])cc2Br)cc1 [4-amino-N-(2-bromo-4-nitrophenyl)benzenesulfonamide] | 188 ± 0.5 | 9.46 ± 0.311 |
| Nc1ccc(S(=O)(=O)N(c2ccccc2)c2ccccc2)cc1 [4-amino-N,N-diphenylbenzenesulfonamide] | 179.5 ± 0.5 | 8.39 ± 0.287 |
| Nc1ccc(S(=O)(=O)Nc2ccc(Cl)cc2)c(Cl)c1 [4-amino-2-chloro-N-(4-chlorophenyl)benzenesulfonamide] | 195.6 ± 0.5 | 8.34 ± 0.287 |
| Cc1cc(N)ccc1S(=O)(=O)Nc1ccc(Cl)cc1 [4-amino-N-(4-chlorophenyl)-2-methylbenzenesulfonamide] | 173.4 ± 0.5 | 8.53 ± 0.287 |
| COc1ccc(NS(=O)(=O)c2ccc(N)cc2)cc1 [4-amino-N-(4-methoxyphenyl)benzenesulfonamide] | 194.2 ± 0.5 | 9.23 ± 0.311 |
| Nc1ccc(S(=O)(=O)Nc2cc(Cl)c(Cl)cc2Cl)cc1 [4-amino-N-(2,4,5-trichlorophenyl)benzenesulfonamide] | 188.1 ± 0.5 | 9.49 ± 0.311 |
| Nc1ccc(S(=O)(=O)Nc2cccc(Cl)c2Cl)cc1 [4-amino-N-(2,3-dichlorophenyl)benzenesulfonamide] | 181.2 ± 0.5 | 9.78 ± 0.311 |

More lines, now with the values ahead:

| Normal melting temperature [1] [°C] | Molar enthalpy of transition or fusion [2] [kcal/mol] | Compound |
| --- | --- | --- |
| 110.4 ± 0.5 | 5.62 ± 0.263 | O=S(=O)(Nc1ccccc1)c1ccccc1 [N-phenylbenzenesulfonamide] |
| 238.0 ± 0.5 | 9.89 ± 0.311 | CC(=O)Nc1ccncc1NS(=O)(=O)c1ccc([N+](=O)[O-])cc1 [N-[3-[[(4-nitrophenyl)sulfonyl]amino]-4-pyridinyl]-acetamide] |
| 98.7 ± 0.5 | 5.33 ± 0.263 | O=[N+]([O-])c1ccccc1NS(=O)(=O)c1ccccc1 [N-(2-nitrophenyl)benzenesulfonamide] |
| 131.0 ± 0.5 | 6.72 ± 0.287 | O=S(=O)(Nc1ncccc1Cl)c1ccccc1 [N-(3-chloro-2-pyridinyl)benzenesulfonamide] |
| 154.8 ± 0.5 | 5.38 ± 0.263 | CCOC(=O)c1ccc(NS(=O)(=O)c2ccccc2)nc1 [ethyl 6-(phenylsulfonamido)nicotinate] |
| 161.0 ± 0.5 | 10.9 ± 0.311 | Cc1ccc(NS(=O)(=O)c2ccc([N+](=O)[O-])cc2)nc1 [N-(5-methylpyridin-2-yl)-4-nitrobenzenesulfonamide] |
| 121.5 ± 0.5 | 6.17 ± 0.263 | O=S(=O)(Nc1ccc(Cl)cc1)c1ccccc1 [N-(4-chlorophenyl)benzenesulfonamide] |
| 125.1 ± 0.5 | 8.01 ± 0.287 | O=S(=O)(Nc1ccccc1Cl)c1ccccc1 [N-(2-chlorophenyl)benzenesulfonamide] |
| 114.1 ± 0.5 | 6.5 ± 0.263 | O=S(=O)(Nc1cccc(Cl)c1Cl)c1ccccc1 [N-(2,3-dichlorophenyl)benzenesulfonamide] |
